Data taken from patent US12491170B2, “Stable treprostinil prodrugs” (United Therapeutics Corporation, priority 2020, dated 2025).
Like-named read-outs stand apart in the source and are kept apart here.

Key:
[1] = Stability in cryopreserved hepatocytes, rat; conditions: for AUC: rat
[2] = dog
[3] = rat
[4] = Stability in cryopreserved hepatocytes, human; conditions: for AUC: human
[5] = Stability in liver microsomes, human; conditions: for AUC: human
[6] = Stability in liver microsomes, dog
[7] = Stability in cryopreserved hepatocytes, dog; conditions: for AUC: dog
[8] = Stability in liver microsomes, rat

## CCCCCC(CCC1C(O)CC2Cc3c(cccc3OCC(=O)O)CC21)OCCN1CCOCC1 (centres unmarked) [L]
[1]
  Trep Concentration (μM) 0 min: 0 µM
  Trep Concentration (μM) 15 min: 0.00347 µM
  Trep Concentration (μM) 30 min: 0.00366 µM
  Trep Concentration (μM) 60 min: 0.00352 µM
  Trep Concentration (μM) 120 min: 0.0034 µM
  AUC: 0.39 µmol·min/L
[2]
  AUC: 0.23 µmol·min/L
[3]
  AUC: 0.28 µmol·min/L
[4]
  Trep Concentration (μM) 0 min: 0.00177 µM
  Trep Concentration (μM) 15 min: 0.00195 µM
  Trep Concentration (μM) 30 min: 0.00202 µM
  Trep Concentration (μM) 60 min: 0.00194 µM
  Trep Concentration (μM) 120 min: 0.00197 µM
  AUC: 0.23 µmol·min/L
[5]
  Trep Concentration 0 min: 0.00327 µM
  Trep Concentration 10 min: 0.00286 µM
  Trep Concentration 20 min: 0.00309 µM
  Trep Concentration 30 min: 0.00264 µM
  Trep Concentration 60 min: 0.00244 µM
  AUC: 0.17 µmol·min/L
[6]
  Trep Concentration 0 min: 0.00302 µM
  Trep Concentration 10 min: 0.00333 µM
  Trep Concentration 20 min: 0.00398 µM
  Trep Concentration 30 min: 0.00409 µM
  Trep Concentration 60 min: 0.00389 µM
[7]
  Trep Concentration (μM) 0 min: 0.00247 µM
  Trep Concentration (μM) 15 min: 0.00312 µM
  Trep Concentration (μM) 30 min: 0.0106 µM
  Trep Concentration (μM) 60 min: 0.00355 µM
  Trep Concentration (μM) 120 min: 0.00568 µM
  AUC: 0.63 µmol·min/L
[8]
  Trep Concentration 0 min: 0.00345 µM
  Trep Concentration 10 min: 0.00356 µM
  Trep Concentration 20 min: 0.00419 µM
  Trep Concentration 30 min: 0.00488 µM
  Trep Concentration 60 min: 0.00552 µM

## CCCCCC(CCC1C(O)CC2Cc3c(cccc3OCC(=O)O)CC21)OC(C)=O (centres unmarked) [XLIII]
[1]
  Trep Concentration (μM) 0 min: 0.00292 µM
  Trep Concentration (μM) 15 min: 0.161 µM
  Trep Concentration (μM) 30 min: 0.266 µM
  Trep Concentration (μM) 60 min: 0.397 µM
  Trep Concentration (μM) 120 min: 0.503 µM
  AUC: 41.38 µmol·min/L
[2]
  AUC: 54.72 µmol·min/L
[3]
  AUC: 8.02 µmol·min/L
[4]
  Trep Concentration (μM) 0 min: 0.00744 µM
  Trep Concentration (μM) 15 min: 0.573 µM
  Trep Concentration (μM) 30 min: 0.623 µM
  Trep Concentration (μM) 60 min: 0.54 µM
  Trep Concentration (μM) 120 min: 0.507 µM
  AUC: 62.18 µmol·min/L
[5]
  Trep Concentration 0 min: 0.883 µM
  Trep Concentration 10 min: 0.681 µM
  Trep Concentration 20 min: 0.602 µM
  Trep Concentration 30 min: 0.513 µM
  Trep Concentration 60 min: 0.341 µM
  AUC: 32.62 µmol·min/L
[6]
  Trep Concentration 0 min: 0.964 µM
  Trep Concentration 10 min: 0.917 µM
  Trep Concentration 20 min: 0.899 µM
  Trep Concentration 30 min: 0.932 µM
  Trep Concentration 60 min: 0.873 µM
[7]
  Trep Concentration (μM) 0 min: 0.0381 µM
  Trep Concentration (μM) 30 min: 0.543 µM
  Trep Concentration (μM) 60 min: 0.446 µM
  Trep Concentration (μM) 120 min: 0.4 µM
  AUC: 53.99 µmol·min/L
[8]
  Trep Concentration 0 min: 0.035 µM
  Trep Concentration 10 min: 0.0741 µM
  Trep Concentration 20 min: 0.111 µM
  Trep Concentration 30 min: 0.145 µM
  Trep Concentration 60 min: 0.206 µM

## CCCCCC(CCC1C(O)CC2Cc3c(cccc3OCC(=O)O)CC21)OC(=O)c1ccc(C)cc1 (centres unmarked) [XLVIII]
[1]
  Trep Concentration (μM) 0 min: 0 µM
  Trep Concentration (μM) 15 min: 0.1 µM
  Trep Concentration (μM) 30 min: 0.141 µM
  Trep Concentration (μM) 60 min: 0.221 µM
  Trep Concentration (μM) 120 min: 0.318 µM
  AUC: 24.16 µmol·min/L
[2]
  AUC: 20.45 µmol·min/L
[3]
  AUC: 5.76 µmol·min/L
[4]
  Trep Concentration (μM) 0 min: 0 µM
  Trep Concentration (μM) 15 min: 0.342 µM
  Trep Concentration (μM) 30 min: 0.304 µM
  Trep Concentration (μM) 60 min: 0.345 µM
  Trep Concentration (μM) 120 min: 0.347 µM
  AUC: 37.91 µmol·min/L
[5]
  Trep Concentration 0 min: 0.202 µM
  Trep Concentration 10 min: 0.302 µM
  Trep Concentration 20 min: 0.322 µM
  Trep Concentration 30 min: 0.337 µM
  Trep Concentration 60 min: 0.352 µM
  AUC: 19.27 µmol·min/L
[6]
  Trep Concentration 0 min: 0.119 µM
  Trep Concentration 10 min: 0.219 µM
  Trep Concentration 20 min: 0.322 µM
  Trep Concentration 30 min: 0.366 µM
  Trep Concentration 60 min: 0.475 µM
[7]
  Trep Concentration (μM) 0 min: 0 µM
  Trep Concentration (μM) 15 min: 0.0841 µM
  Trep Concentration (μM) 30 min: 0.115 µM
  Trep Concentration (μM) 60 min: 0.177 µM
  Trep Concentration (μM) 120 min: 0.214 µM
  AUC: 18.23 µmol·min/L
[8]
  Trep Concentration 0 min: 0.0583 µM
  Trep Concentration 10 min: 0.0944 µM
  Trep Concentration 20 min: 0.0864 µM
  Trep Concentration 30 min: 0.0909 µM
  Trep Concentration 60 min: 0.123 µM

## CCCCC[C@H]1CC[C@@H]2[C@H]3Cc4cccc(OCC(=O)O)c4C[C@H]3C[C@H]2OC(=O)O1 [XXIV]
[1]
  Trep Concentration (μM) 0 min: 0.365 µM
  Trep Concentration (μM) 15 min: 0.581 µM
  Trep Concentration (μM) 30 min: 0.531 µM
  Trep Concentration (μM) 60 min: 0.482 µM
  Trep Concentration (μM) 120 min: 0.431 µM
  AUC: 58.02 µmol·min/L
[2]
  AUC: 55.49 µmol·min/L
[3]
  AUC: 45.96 µmol·min/L
[4]
  Trep Concentration (μM) 0 min: 0.041 µM
  Trep Concentration (μM) 15 min: 0.228 µM
  Trep Concentration (μM) 30 min: 0.264 µM
  Trep Concentration (μM) 60 min: 0.312 µM
  Trep Concentration (μM) 120 min: 0.328 µM
  AUC: 33.55 µmol·min/L
[5]
  Trep Concentration 0 min: 0.326 µM
  Trep Concentration 10 min: 0.342 µM
  Trep Concentration 20 min: 0.341 µM
  Trep Concentration 30 min: 0.326 µM
  Trep Concentration 60 min: 0.23 µM
  AUC: 18.43 µmol·min/L
[6]
  Trep Concentration 0 min: 0.892 µM
  Trep Concentration 10 min: 0.975 µM
  Trep Concentration 20 min: 0.948 µM
  Trep Concentration 30 min: 0.945 µM
  Trep Concentration 60 min: 0.86 µM
[7]
  Trep Concentration (μM) 0 min: 0.0779 µM
  Trep Concentration (μM) 15 min: 0.461 µM
  Trep Concentration (μM) 30 min: 0.438 µM
  Trep Concentration (μM) 60 min: 0.349 µM
  Trep Concentration (μM) 120 min: 0.296 µM
  AUC: 41.94 µmol·min/L
[8]
  Trep Concentration 0 min: 0.779 µM
  Trep Concentration 10 min: 0.791 µM
  Trep Concentration 20 min: 0.79 µM
  Trep Concentration 30 min: 0.802 µM
  Trep Concentration 60 min: 0.681 µM
